According to US11160279B2, “Method of controlling herbicide resistant weeds” (Sumitomo Chemical Company, Limited, priority 2018, dated 2021):

What was measured:
Format in all cases: in vivo
[1] = system: Amaranthus palmeri having an Arg128Met mutation in PPO2; assay: Soil surface treatment on the day the weed is sown, soybean sown 7 days later, greenhouse pot test (Example 1); conditions: 10, 20, 40, or 80 g/ha applied to soil surface, 200 L/ha aqueous dilution; soybean sown after 7 days; examined after 14 days
Description: Amaranthus palmeri having an Arg128Met mutation in PPO2 is sown in a plastic pot. On the same day, a compound X is applied to the surface of soil in an amount of 10, 20, 40, or 80 g/ha by spraying 200 L/ha of an aqueous dilution containing the compound X. Then, the weeds are cultivated in a greenhouse and soybean seeds are sown after 7 days, to examine the effects on the weeds and phytotoxic effects on soybean after 14 days.

[2] = system: Amaranthus palmeri having an Arg128Met mutation in PPO2; assay: Soil surface treatment on the day weed and soybean are sown, greenhouse pot test (Example 2); conditions: 10, 20, 40, or 80 g/ha applied to soil surface on day of sowing, 200 L/ha aqueous dilution; examined after 21 days
Description: Amaranthus palmeri having an Arg128Met mutation in PPO2 and soybean are sown in a plastic pot. On the same day, a compound X is applied to the surface of soil in an amount of 10, 20, 40, or 80 g/ha by spraying 200 L/ha of an aqueous dilution containing the compound X. Then, the weeds and soybean are cultivated in a greenhouse to examine the effects on the weeds and phytotoxic effects on soybean after 21 days.

[3] = system: Amaranthus palmeri having an Arg128Met mutation in PPO2; assay: Foliar treatment 21 days after sowing weed and soybean, greenhouse pot test (Example 3); conditions: 10, 20, 40, or 80 g/ha foliar treatment 21 days after sowing, 200 L/ha aqueous dilution; examined 14 days after the treatment
Description: Amaranthus palmeri having an Arg128Met mutation in PPO2 and soybean are sown in a plastic pot. Then, the weeds and soybean are cultivated in a greenhouse. A compound X is applied in an amount of 10, 20, 40, or 80 g/ha by spraying 200 L/ha of an aqueous dilution containing the compound X to perform foliar treatment 21 days after the sowing. Then, the weeds and soybean are cultivated in a greenhouse to examine the effects on the weeds and phytotoxic effects on soybean 14 days after the treatment.

Measured: effects on the weeds (herbicidal effect)

CCOC(=O)COc1ncccc1Oc1cc(-n2c(=O)cc(C(F)(F)F)n(C)c2=O)c(F)cc1Cl [compound X, Ethyl [3-[2-chloro-4-fluoro-5-(1-methyl-6-trifluoromethyl-2,4-dioxo-1,2,3,4-tetrahydropyrimidine-3-yl)phenoxy]-2-pyridyloxy]acetate]
valuable effect: all assays above
